Measurements published in PubChem BioAssay (NCI).
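GI50 is the concentration that inhibits growth by half. The concentration for full growth arrest is given as TGI.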

Key:
Assay in all cases: growth of human tumour cells (NCI), 384-well format
OVCAR-4 ovarian = tested on: OVCAR-4 ovarian
DU-145 prostate = tested on: DU-145 prostate
NCI/ADR-RES ovarian = tested on: NCI/ADR-RES ovarian
A549 NSCLC = tested on: A549 NSCLC
SN12C renal = tested on: SN12C renal
HOP-92 NSCLC = tested on: HOP-92 NSCLC
RXF 393 renal = tested on: RXF 393 renal
SK-MEL-28 melanoma = tested on: SK-MEL-28 melanoma
HS 578T breast = tested on: HS 578T breast
MOLT-4 leukemia = tested on: MOLT-4 leukemia
NCI-H23 lung = tested on: NCI-H23 lung
MDA-MB-468 breast = tested on: MDA-MB-468 breast
COLO 205 colon = tested on: COLO 205 colon
HT29 colon = tested on: HT29 colon
KM12 colon = tested on: KM12 colon
SK-MEL-5 melanoma = tested on: SK-MEL-5 melanoma
NCI-H460 NSCLC = tested on: NCI-H460 NSCLC
SF-539 CNS = tested on: SF-539 CNS
CAKI-1 renal = tested on: CAKI-1 renal
UACC-257 melanoma = tested on: UACC-257 melanoma
NCI-H322M lung = tested on: NCI-H322M lung
TK-10 renal = tested on: TK-10 renal
CCRF-CEM leukemia = tested on: CCRF-CEM leukemia
SR leukemia = tested on: SR leukemia
OVCAR-3 ovarian = tested on: OVCAR-3 ovarian
MCF7 breast = tested on: MCF7 breast
HCT-15 colon = tested on: HCT-15 colon
EKVX NSCLC = tested on: EKVX NSCLC
HCC-2998 colon = tested on: HCC-2998 colon
OVCAR-8 ovarian = tested on: OVCAR-8 ovarian
IGROV1 ovarian = tested on: IGROV1 ovarian
U251 glioblastoma = tested on: U251 glioblastoma
T-47D breast = tested on: T-47D breast
HOP-62 NSCLC = tested on: HOP-62 NSCLC
MDA-MB-435 melanoma = tested on: MDA-MB-435 melanoma
UACC-62 melanoma = tested on: UACC-62 melanoma
786-0 renal = tested on: 786-0 renal
PC-3 prostate = tested on: PC-3 prostate
OVCAR-5 ovarian = tested on: OVCAR-5 ovarian
SK-OV-3 ovarian = tested on: SK-OV-3 ovarian
BT-549 breast = tested on: BT-549 breast
NCI-H522 lung = tested on: NCI-H522 lung
MALME-3M melanoma = tested on: MALME-3M melanoma
SNB-75 CNS = tested on: SNB-75 CNS
SF-295 CNS = tested on: SF-295 CNS
M14 melanoma = tested on: M14 melanoma
NCI-H226 lung = tested on: NCI-H226 lung
MDA-MB-231 breast = tested on: MDA-MB-231 breast
A498 renal = tested on: A498 renal
HL-60(TB) leukemia = tested on: HL-60(TB) leukemia
SF-268 CNS = tested on: SF-268 CNS
SW-620 colon = tested on: SW-620 colon
SNB-19 CNS = tested on: SNB-19 CNS
ACHN renal = tested on: ACHN renal
RPMI-8226 leukemia = tested on: RPMI-8226 leukemia
SK-MEL-2 melanoma = tested on: SK-MEL-2 melanoma

SMILES: O=c1[nH]c(C2CCCN2)nc2c1oc1ccc(Cl)cc12 (configuration not stated)
- GI50 (OVCAR-4 ovarian): 81.8 µM
- TGI (OVCAR-4 ovarian): > 100 µM
- GI50 (DU-145 prostate): > 100 µM
- TGI (DU-145 prostate): > 100 µM
- GI50 (NCI/ADR-RES ovarian): > 100 µM
- TGI (NCI/ADR-RES ovarian): > 100 µM
- GI50 (A549 NSCLC): > 100 µM
- TGI (A549 NSCLC): > 100 µM
- GI50 (SN12C renal): > 100 µM
- TGI (SN12C renal): > 100 µM
- GI50 (HOP-92 NSCLC): 65.3 µM
- TGI (HOP-92 NSCLC): > 100 µM
- GI50 (RXF 393 renal): 21 µM
- TGI (RXF 393 renal): 43.1 µM
- GI50 (SK-MEL-28 melanoma): > 100 µM
- TGI (SK-MEL-28 melanoma): > 100 µM
- GI50 (HS 578T breast): > 100 µM
- TGI (HS 578T breast): > 100 µM
- GI50 (MOLT-4 leukemia): 31 µM
- TGI (MOLT-4 leukemia): > 100 µM
- GI50 (NCI-H23 lung): > 100 µM
- TGI (NCI-H23 lung): > 100 µM
- GI50 (MDA-MB-468 breast): 21.2 µM
- TGI (MDA-MB-468 breast): 56.7 µM
- GI50 (COLO 205 colon): 31.2 µM
- TGI (COLO 205 colon): 83 µM
- GI50 (HT29 colon): > 100 µM
- TGI (HT29 colon): > 100 µM
- GI50 (KM12 colon): > 100 µM
- TGI (KM12 colon): > 100 µM
- GI50 (SK-MEL-5 melanoma): 36.2 µM
- TGI (SK-MEL-5 melanoma): > 100 µM
- GI50 (NCI-H460 NSCLC): > 100 µM
- TGI (NCI-H460 NSCLC): > 100 µM
- GI50 (SF-539 CNS): 53.6 µM
- TGI (SF-539 CNS): > 100 µM
- GI50 (CAKI-1 renal): 57 µM
- TGI (CAKI-1 renal): > 100 µM
- GI50 (UACC-257 melanoma): > 100 µM
- TGI (UACC-257 melanoma): > 100 µM
- GI50 (NCI-H322M lung): > 100 µM
- TGI (NCI-H322M lung): > 100 µM
- GI50 (TK-10 renal): > 100 µM
- TGI (TK-10 renal): > 100 µM
- GI50 (CCRF-CEM leukemia): 18.2 µM
- TGI (CCRF-CEM leukemia): 37.8 µM
- GI50 (SR leukemia): 37.3 µM
- TGI (SR leukemia): > 100 µM
- GI50 (OVCAR-3 ovarian): > 100 µM
- TGI (OVCAR-3 ovarian): > 100 µM
- GI50 (MCF7 breast): > 100 µM
- TGI (MCF7 breast): > 100 µM
- GI50 (HCT-15 colon): > 100 µM
- TGI (HCT-15 colon): > 100 µM
- GI50 (EKVX NSCLC): 85 µM
- TGI (EKVX NSCLC): > 100 µM
- GI50 (HCC-2998 colon): > 100 µM
- TGI (HCC-2998 colon): > 100 µM
- GI50 (OVCAR-8 ovarian): > 100 µM
- TGI (OVCAR-8 ovarian): > 100 µM
- GI50 (IGROV1 ovarian): > 100 µM
- TGI (IGROV1 ovarian): > 100 µM
- GI50 (U251 glioblastoma): > 100 µM
- TGI (U251 glioblastoma): > 100 µM
- GI50 (T-47D breast): 19 µM
- TGI (T-47D breast): 35 µM
- GI50 (HOP-62 NSCLC): > 100 µM
- TGI (HOP-62 NSCLC): > 100 µM
- GI50 (MDA-MB-435 melanoma): > 100 µM
- TGI (MDA-MB-435 melanoma): > 100 µM
- GI50 (UACC-62 melanoma): > 100 µM
- TGI (UACC-62 melanoma): > 100 µM
- GI50 (786-0 renal): > 100 µM
- TGI (786-0 renal): > 100 µM
- GI50 (PC-3 prostate): > 100 µM
- TGI (PC-3 prostate): > 100 µM
- GI50 (OVCAR-5 ovarian): > 100 µM
- TGI (OVCAR-5 ovarian): > 100 µM
- GI50 (SK-OV-3 ovarian): > 100 µM
- TGI (SK-OV-3 ovarian): > 100 µM
- GI50 (BT-549 breast): 29.3 µM
- TGI (BT-549 breast): 78.4 µM
- GI50 (NCI-H522 lung): 14.4 µM
- TGI (NCI-H522 lung): 31 µM
- GI50 (MALME-3M melanoma): 14.8 µM
- TGI (MALME-3M melanoma): > 100 µM
- GI50 (SNB-75 CNS): 38.1 µM
- TGI (SNB-75 CNS): > 100 µM
- GI50 (SF-295 CNS): > 100 µM
- TGI (SF-295 CNS): > 100 µM
- GI50 (M14 melanoma): 62.8 µM
- TGI (M14 melanoma): > 100 µM
- GI50 (NCI-H226 lung): 49.5 µM
- TGI (NCI-H226 lung): > 100 µM
- GI50 (MDA-MB-231 breast): 99.5 µM
- TGI (MDA-MB-231 breast): > 100 µM
- GI50 (A498 renal): 58.5 µM
- TGI (A498 renal): > 100 µM
- GI50 (HL-60(TB) leukemia): 29.8 µM
- TGI (HL-60(TB) leukemia): > 100 µM
- GI50 (SF-268 CNS): > 100 µM
- TGI (SF-268 CNS): > 100 µM
- GI50 (SW-620 colon): > 100 µM
- TGI (SW-620 colon): > 100 µM
- GI50 (SNB-19 CNS): > 100 µM
- TGI (SNB-19 CNS): > 100 µM
- GI50 (ACHN renal): > 100 µM
- TGI (ACHN renal): > 100 µM
- GI50 (RPMI-8226 leukemia): > 100 µM
- TGI (RPMI-8226 leukemia): > 100 µM
- GI50 (SK-MEL-2 melanoma): > 100 µM
- TGI (SK-MEL-2 melanoma): > 100 µM
